The record followed here is ChEMBL document CHEMBL5260811, “Drug development against tuberculosis: Impact of alkaloids” (Eur J Med Chem, 2017).

For assay [1], the system named is Mycobacterium intracellulare. Kind of assay: Antimycobacterial activity against Mycobacterium intracellulare. The class given is functional, organism-based.
Assay [2] relates to Mycobacterium tuberculosis. The experiment in a line: Antimycobacterial activity against Mycobacterium tuberculosis. The note with it: Mycobacterium tuberculosis. The class given is functional.
The test system of assay [3] is Mycolicibacterium smegmatis. Kind of assay: Antimycobacterial activity against Mycobacterium smegmatis. The note with it: for MIC: Mycolicibacterium smegmatis. Format: functional.
The next assay deals with Mycobacterium sp. The experiment in a line: Antimycobacterial activity against Mycobacterium sp. Format: functional.
The subject of another assay is Mycolicibacterium vaccae. The experiment in a line: Antimycobacterial activity against Mycobacterium vaccae. The class given is functional.
Assay [4] deals with Mycobacterium tuberculosis. Kind of assay: Antimycobacterial activity against Mycobacterium tuberculosis H37Rv at 50 ug/ml relative to control. The class given is functional.
The test system of assay [5] is Mycobacterium tuberculosis. The experiment in a line: Antimycobacterial activity against Mycobacterium tuberculosis H37Rv. The class given is functional.
The test system of a further assay is Mycobacterium avium. Kind of assay: Antimycobacterial activity against Mycobacterium avium. Format: functional.
The test system of assay [6] is Mycolicibacterium fortuitum. The experiment in a line: Antimycobacterial activity against Mycobacterium fortuitum. The class given is functional.
The test system of assay [7] is Mycobacterium tuberculosis. Kind of assay: Antimycobacterial activity against Mycobacterium tuberculosis H37Rv by microplate alamar blue assay. Format: functional. (In general: The colour change of resazurin is a common sign of viable cells or microbes.)
The next assay deals with Mycolicibacterium phlei. The experiment in a line: Antimycobacterial activity against Mycobacterium phlei. The class given is functional.
The next assay concerns Mycobacterium. Kind of assay: Antimycobacterial activity against Mycobacterium. Format: functional.

In brackets after ≈: the same amount, converted by molar mass. A value given as a limit tells only on which side of the number the result lay.

For orientation: MIC means the lowest concentration found to suppress growth. Low values mean a more susceptible organism, high ones a less susceptible organism. As to `COc1ccc2cc3[n+](cc2c1OC)CCc1cc2c(cc1-3)OCO2.[Cl-]` [BERBERINE CHLORIDE], the MIC stood at 0.78 µg/mL in assay [1], 25 µg/mL in assay [2] and 0.78 µg/mL in assay [3].

Turning to `O=C1c2ccccc2-c2nccc3ccnc1c23` [SAMPANGINE], in the assay with Mycobacterium sp., the MIC was found to be 0.78 µg/mL (≈ 3.36 µM).

Consider `CC/C=C(\C)C[C@H](C)C[C@H](C)/C(O)=C1/C(=O)N[C@@H](Cc2ccc(O)cc2)C1=O`, for which inhibition of growth in the assay with Mycolicibacterium vaccae (MIC) required 6.25 µg/mL (≈ 16.2 µM).

Turning to `Cc1ccnc2c1C(=O)c1ccccc1C2=O` [CLEISTOPHOLINE], in the assay on Mycobacterium sp., it took 12.5 µg/mL (≈ 56 µM) to inhibit growth (MIC).

As a reminder, the inhibition is the relative decrease from the control value, in per cent. Low readings indicate little suppression, high ones strong suppression. Take `CC[C@@H]1[C@@H]2CCN3CC[C@@]4(C(=C2C(=O)OC)Nc2ccccc24)[C@@H]13`: testing at 50 µg/mL in [4] gave an inhibition of 50%.

In the assay with Mycobacterium sp., `CC[C@H]1CN(C)[C@H]2Cc3c([nH]c4ccccc34)C(=O)C[C@@H]1[C@@H]2C(=O)OC` registered a minimum inhibitory concentration (MIC) of 128 µg/mL (≈ 361 µM).

As for `C1=C\CCCCN2C[C@H]3CCCC/C=C\CCCCN4CC[C@@H]([C@H](CCCCCC/1)C4)[C@H](C3)C2`, the IC in assay [3] was 2.5 µg/mL.

Take `N[C@@H]1CONC1=O` [CYCLOSERINE]: the minimum inhibitory concentration (MIC) in [5] worked out at 12.5 µg/mL; in assay [2], 3.12 µg/mL (≈ 30.6 µM); in the assay on Mycobacterium avium, 3.12 µg/mL (≈ 30.6 µM); in [6] it was 3.12 µg/mL (≈ 30.6 µM); in assay [3], 3.12 µg/mL (≈ 30.6 µM).

On to `COc1ccc2c(c1)CC1NCCc3cc4c(c-2c31)OCO4` (configuration not stated), for which the lowest concentration to inhibit growth against Mycobacterium sp. (MIC) was 12 µg/mL (≈ 40.6 µM).

`COC(=O)[C@@]12COCC=C3C[N+]([O-])(CC[C@@H]31)Cc1c2[nH]c2ccccc12` gave an inhibition at 50 µg/mL in assay [4] of 50%.

In the case of `Nc1ccccc1-c1c[nH]c(C(=O)O)c1`, in [3], inhibition of growth (MIC) required 0.5 µg/mL (≈ 2.47 µM).

Compound `C=C(c1cc2ccccc2[nH]1)[C@H]1CCN(C)C/C1=C\CO` showed an inhibition at 50 µg/mL in [4] of 50%.

`CC[C@H]1C[C@H]2C[N@]3CCc4c([nH]c5ccc(OC)cc45)[C@](C(=O)OC)(C2)[C@H]13`: 50 µg/mL (≈ 136 µM) was the least that counted as inhibitory in the assay with Mycobacterium sp. (MIC).

With `c1ccc2c(c1)CC1NCCc3cc4c(c-2c31)OCO4` (configuration not stated), the MIC against Mycobacterium sp. turned out to be 12 µg/mL (≈ 45.2 µM).

By IC50 is commonly meant the midpoint of a concentration-inhibition curve. The compound `O=C1CCCN2[C@@H](CC1)C[C@]13CN4CCCC/C=C\CC[C@](O)(C=C(c5nccc6c5[nH]c5c(O)cccc56)[C@@H]1CC4)[C@H]23` registered a concentration for half-maximal inhibition (IC50) in assay [1] of 3.5 µg/mL (≈ 6.03 µM). The compound further gave an MIC in assay [5] of 0.4 µg/mL.

On to `C=C[C@H]1C=C[C@H]2[C@@H]3C[C@H](C)CC[C@H]3[C@@H]3Oc4ccc(cc4)C[C@]4(O)NC(=O)[C@H](C(=O)[C@@H]1[C@H]23)C4N1C(=O)[C@H]2C(=O)[C@H]3[C@@H](C=C)C=C[C@H]4[C@@H]5C[C@H](C)CC[C@H]5[C@H](Oc5ccc(cc5)C[C@@H]2C1=O)[C@@H]43` (some centres not stated) [HIRSUTELLONE F], for which inhibition of growth in [7] (MIC) required 3.12 µg/mL (≈ 3.5 µM).

In [3], `C1=C\CCCC[C@@H]2CN3CCCC/C=C\CCCC[C@H]4C[C@H](CN(CCCCCC/1)C4)[C@H]2CC3` had an IC of 1 µg/mL.

In assay [3], `O=CNCCCCC(NC(=O)C1COC(c2ccccc2O)=N1)C(=O)O` (configuration not stated) [TRANSVALENCIN Z] yielded an MIC of 0.125 µg/mL (≈ 0.344 µM).

For the compound `O=C1C=CC2=NC=CC3c4cccc(O)c4N1C23` (configuration not stated), the minimum inhibitory concentration (MIC) (against Mycolicibacterium phlei; in assay [3]) was 8 µg/mL (≈ 33.6 µM) in each case.

Compound `COC1=C(Br)[C@@H](O)[C@]2(C=C1Br)CC(C(=O)NC[C@@H](O)COc1c(Br)cc(C(O)CNC(=O)C3=NO[C@@]4(C=C(Br)C(OC)=C(Br)[C@H]4O)C3)cc1Br)=CO2` (some centres not stated) came in with a minimum inhibitory concentration (MIC) against Mycobacterium of 7.9 µg/mL.

`CC[C@H]1C[C@H]2C[C@H]3c4[nH]c5ccc(OC)cc5c4CCN(C2)C13`: the minimal inhibitory concentration (MIC) in the assay with Mycobacterium sp. came to 50 µg/mL (≈ 161 µM).

Take `O=C(/C=C/C=C/c1ccc2c(c1)OCO2)N1CCCCC1` [PIPERINE]: the MIC in assay [3] amounted to 128 µg/mL (≈ 449 µM).

Compound `COC(=O)[C@@]12COCC=C3CN(CC[C@@H]31)Cc1c2[nH]c2ccccc12` gave an inhibition at 50 µg/mL in assay [4] of 50%.

The compound `Oc1cccc2c1[nH]c1c(C3=C[C@@]4(O)CC/C=C\CCCCN5CCC3[C@]3(C[C@@H]6/C=C\CCCCN6[C@H]34)C5)nccc12` (some centres not stated) gave a concentration for half-maximal inhibition (IC50) in assay [1] of 3.5 µg/mL (≈ 6.2 µM). For the same compound, the MIC in assay [5] was 0.4 µg/mL.

In the assay on Mycolicibacterium phlei, `CC(C)=CCOc1ccc(C2=C(Cc3ccccc3)C(=O)N(O)C2=O)cc1` came in with a minimal inhibitory concentration (MIC) of 25 µg/mL (≈ 68.8 µM).

On to `CCCCCCc1cc(Cl)c(O)c(C(=O)c2c[nH]c(Cl)c2Cl)c1O`, for which the MIC (in assay [6]; in the assay with Mycolicibacterium vaccae; in assay [3]) was 0.05 µg/mL (≈ 0.128 µM) in each case.

The compound `C/C=C1\CN2CC[C@@H]1[C@](CO)(C(=O)OC)c1[nH]c3ccccc3c1C2` yielded an inhibition at 50 µg/mL in assay [4] of 50%.

Take `COC(=O)c1cc2c(o1)-c1nccc3c1c(nc1ccccc13)C2=O`: the minimal inhibitory concentration (MIC) against Mycobacterium is 0.61 µM.

Compound `COc1cnc2c3c(nccc13)C(=O)c1ccccc1-2` showed an MIC against Mycobacterium sp. of 1.56 µg/mL (≈ 5.95 µM).

Compound `COc1ccc2[nH]c3cc(O)c(C=O)cc3c2c1` had an MIC in [7] of 14.3 µg/mL (≈ 59.3 µM).

In the case of `CCCCCCCCC[C@@H]1C[C@@H]2CC[C@H]3[C@@H](C(=O)O[C@H](C)CCCCCCC[C@@H]4C[C@@H]5CC[C@@H]6C[C@H](C)NC(=N4)N65)[C@@H](C)N=C(N1)N23`, the MIC in [7] is 3.18 µg/mL (≈ 4.87 µM). Compared with the last compound, the MIC is about 4.5-fold lower.

In assay [3], `OC1CCCC/C=C\CCCC[C@@H]2CN3CCCC/C=C\CCCC[C@H]4C[C@H](CN(C1)C4)[C@H]2CC3` (some centres not stated) returned an IC of 12.5 µg/mL.

`CO/N=c1\[nH]cnc2c1[n+](C/C=C(\C)CC/C=C(\C)CCC1CCCCC1)cn2C.[Cl-]` returned a minimal inhibitory concentration (MIC) in [5] of 1.56 µg/mL.

In turn, `CC/C=C(\C)C[C@H](C)C[C@H](C)/C(O)=C1/C(=O)N[C@@H]([C@@H](O)c2ccc(O)cc2)C1=O` had an MIC in the assay with Mycolicibacterium vaccae of 6.25 µg/mL (≈ 15.6 µM).

Consider `COc1ccc2[nH]c3ccc(C=O)cc3c2c1`, for which inhibition of growth in assay [7] (MIC) required 15.6 µg/mL (≈ 69.3 µM).

The compound `COc1cc2c(cc1O)CC[n+]1cc3c(OC)c(OC)ccc3cc1-2` [JATRORRHIZINE] gave an MIC against Mycobacterium sp. of less than 100 µg/mL.

Turning to `O=Cc1ccc2[nH]c3ccccc3c2c1`, the results for the MIC in assay [2] and in assay [7] were 100 µg/mL (≈ 512 µM) and 42.3 µg/mL (≈ 217 µM), respectively.

As for `CC(C)=CCc1c(O)ccc2[nH]c3ccc(C=O)cc3c12` [MICROMELINE], in assay [7], the minimum inhibitory concentration (MIC) amounted to 31.5 µg/mL (≈ 113 µM).

Take `COC(=O)c1cc2c(s1)-c1nccc3c1c(nc1ccccc13)C2=O`: in the assay on Mycobacterium, 0.58 µM was the least that counted as inhibitory (MIC).

In [5], `Nc1c(Br)cc(O)c(CC(=O)O)c1Br` yielded a minimal inhibitory concentration (MIC) of 15.9 µg/mL.

For the compound `O=C1C=CC2=NC=CC3c4ccccc4N1C23` (configuration not stated), the minimum inhibitory concentration (MIC) (against Mycolicibacterium phlei; in assay [3]) was 8 µg/mL (≈ 36 µM) throughout.

Turning to `C=C1CCCC(C)(C)[C@H]1CC/C(C)=C/CC/C(C)=C/C[n+]1cn(C)c2nc[nH]/c(=N\OC)c21.[Cl-]`, in [5], the minimal inhibitory concentration (MIC) worked out at 3 µg/mL.

In assay [5], `C=C1CC[C@@]2(C#N)[C@H]3[C@H](CC[C@@H]2C)[C@@H](C)C[C@@H](CC(C)(C)C)[C@H]13` displayed a minimal inhibitory concentration (MIC) of 2 µg/mL. Compared with the last compound, the MIC is about 1.5-fold lower.

For the compound `COC1=C(Br)[C@@H](O)[C@]2(C=C1Br)CC(C(=O)NCCCOc1c(Br)cc(C(O)CNC(=O)C3=NO[C@@]4(C=C(Br)C(OC)=C(Br)[C@H]4O)C3)cc1Br)=CO2` (some centres not stated), in the assay with Mycobacterium, the MIC was determined as 8 µg/mL.

Turning to `C=C[C@]1(C)C/C=C(/C#N)C(C)(C)c2[nH]c3cccc4c3c2C(=C)[C@H](CC1Cl)C4(C)C` (some centres not stated), 53.7 µM was the least that counted as inhibitory in assay [5] (MIC).

In turn, `COC(=O)[C@@]1(c2cc3ccccc3[nH]2)COCC=C2CN(C)CC[C@@H]21` [6,7-SECO-ANGUSTILOBINE B] returned an inhibition at 50 µg/mL in assay [4] of 50%.

`Oc1ccc2c(c1)CC1NCCc3cc4c(c-2c31)OCO4` (configuration not stated): the MIC against Mycobacterium sp. amounted to 6 µg/mL (≈ 21.3 µM).

In the assay with Mycobacterium, `CS1(C2=CC(=O)C3=C(C2)c2nccc4cccc(c24)N3)CCC(=O)OC1` (configuration not stated) came in with an MIC of 2.1 µM. In other words, the single-digit micromolar range.

In turn, `CC[C@H]1C=CCC[C@@]2(C[C@@H]3CC[C@@H]4[C@H](C(=O)OCCCCCCCCCCCCCCCC(=O)N(CCCN)CC(O)CCN)[C@]5(CCC[C@@H](C)O5)N=C(N2)N34)O1` (some centres not stated) came in with an MIC in assay [7] of 46.5 µg/mL (≈ 58 µM).
